Experimental data from patent publication US20120010196A1, “METHODS OF TREATING NEURODEGENERATIVE DISORDERS AND DISEASES” (priority 2010, published 2012).
Where a name gives a salt, the structure may show the parent alone.

What was measured:
[1] = system: axons and growth cones of hippocampal neurons from wild-type mice; test: Immunofluorescence quantification of protein levels in axons and growth cones of wild-type hippocampal neurons; format: cell-based; conditions: for RhoA levels in axons, percentage of control vehicle-treated neurons / RhoA levels in growth cones, percentage of control vehicle-treated neurons: immunohistochemical analysis, mean±SEM, n=25-40, Mdm2 inhibitor 1 μM
Experimental: (§1) Neuronal cultures. Cortical and hippocampal neurons were prepared from npc1+/+ and npc1−/− embryos at embryonic day 18 (E18); time-pregnant wild-type BALB/c or npc1+/− mice were obtained either from Charles River Laboratories (San Diego, Calif.) or from our breeding colony respectively. Neurons were cultured in NeuroBasal (GIBCO, Carlsbad, Calif.) with 10% bovine serum albumin (BSA), 2% B27, and 1% glutamine for three to four days before being used.
(§2) Treatment. For primary cultured neurons, chemicals (U18666A and inhibitors of various enzymes) were first dissolved in 10% DMSO before being diluted in cultured medium; final DMSO concentration was lower than 0.01%. For in vivo treatment, hydroxyfasudil monohydrochloride (Sigma) was dissolved in double-distilled H2O and injected subcutaneously at 10 mg/kg, twice a day from postnatal day 7 to day 28.
(§3) Immunofluorescent staining. Hippocampal neurons were fixed with 4% paraformaldehyde in phosphate buffer (PB; pH 7.4) for 15 min. After washing with 1× phosphate buffer saline (PBS), cells were permeabilized with 0.05% Triton X-100 in 1×PBS for 15 min, and incubated with blocking buffer (3% BSA, 0.02% Triton X-100 in 1×PBS) for 15 min before being probed with primary antibodies. The following primary antibodies were used: anti-E6AP (1:1000), anti-phospho-p53 (1:250), anti-phospho-4EBP1 (1:1000), antiphospho-Mdm2 antibody (1:250), anti-phospho-p38 antibody (1:250), anti-RhoA antibody (1:1500). All primary antibodies were diluted in blocking buffer and incubated at 4° C. for 18 h. After six washes (6×10 min) with 1×PBS at room temperature, cells were incubated with secondary antibodies, Alexa488-anti-rabbit (1:500) or Alexa594-anti-mouse (1:500); both antibodies were diluted in blocking buffer and incubated at room temperature for one h. Cells were then washed with 1×PBS (6×10 min) and sealed with mounting medium (Vectashield; Vector Laboratories, Inc., Burlingame, Calif.) containing 49,69-diamidino-2-phenylindole (DAPI) to stain nuclei. Immunofluorescent signal was detected with a Nikon confocal microscope (Nikon TE 2000U with DEclipse C1 system; Melville, N.Y.).
(§4) Quantification of growth cone morphology and immunoreactivity. Confocal images were taken using the 60× oil-immersion objective. About 20-30 images were randomly selected from each culture dish (20 mm in diameter); at least four to six dishes from three to six independent culture preparations/experiments were used for each experimental group. Within an experiment, cultures used for different experimental groups and designed for comparison were stained simultaneously and imaged with the same acquisition parameters. Quantification was done blindly by multiple researchers. Growth cones with less than 1 filopodium were considered collapsed; 100 growth cones were-quantified for each experimental group. Image J software was used to quantify immunoreactivity intensity of p-p53 and RhoA in axons and growth cones; the “total integrated density” was used instead of “average intensity”. Briefly, individual growth cones were outlined manually and the total integrated density was measured using Image J software. For quantification of immunoreactivity in axons, a 50 μm fragment of axons from the neck of growth cones towards the cell body was selected and integrated density measured.

[2] = system: hippocampal neurons cultured from wild-type mice; test: Quantification of growth cone collapse in cultured neurons from wild-type mice (U18666A-induced); format: cell-based; conditions: for growth cone collapse (share of neurons): 1 μM U18666A for 18 h
Experimental: as §1, §2, §3, §4

[3] = system: cortical neurons cultured from wild-type mice; test: Immunoblotting analysis of various proteins in cultured cortical neurons (U18666A-induced changes); format: cell-based; conditions: for RhoA level (immunoblot) / Ubiquitin level (immunoblot) / p-4EBP1 level (immunoblot) / p-LIMK level (immunoblot) / p-Mdm2 level (immunoblot) / p-p38 level (immunoblot) / p-p53Δ level (immunoblot) / t-p38 level (immunoblot) / t-p53 level (immunoblot): DIV4 cortical neurons from wild-type mice, 5 μM U18666A, inhibitor pre-treatment 1 μM, DMSO = 100, n = 3-6
Experimental: as §1, §2
Immunoprecipitation and immunoblotting procedures. For immunoprecipitation, cultured cortical neurons were lysed in lysis buffer [0.05 M Tris base, 0.9% NaCl, pH 7.6, and 0.5% Triton X-100 plus Protease Inhibitors Cocktail (1:100; EMD Biosciences) and phosphatase inhibitor cocktails (1:500; Sigma)]. Lysates were centrifuged at 16,000×g for 30 min at 4° C. Supernatant were then cleared with a mixture of protein A/Gagarose beads (each 50%) for 1 h at 4 uC, and after a brief spin, pellets were discarded. A small portion of the supernatants was used as input. The reminder of the supernatant was immunoprecipitated overnight with control IgG or Tau1 antibodies. Immunoprecipitates were captured by incubation with protein A/G-agarose beads for 3 h at 4° C. After several washes, the beads were resuspended in 2×SDS sample buffer [4% sodium dodecyl sulfate (SDS), 100 mM Tris-HCl (pH 6.8), 10% b-mercaptoethanol, 20% glycerol and 0.2% bromophenol blue] and boiled for 10 min. The resulting proteins were separated by SDS-PAGE, and transferred to polyvinylidene difluoride membranes for immunoblotting using previously described protocols.
Because the p-p53Δ and p-p53 bands were very close in immunoblots and the former was the predominant band, p-p53Δ levels were used as an index of p-p53 degradation. Immunoprecipitation was used to determine whether p-p53 truncation affected its association with the microtubule-associated protein tau, a protein that is abundantly and exclusively expressed in axons. p53 labeled by either anti-p-p53 or anti-p53 antibodies was immunoprecipitated by Tau1 antibodies (FIG. 5B).
Increased levels of p-p53Δ and p-Mdm2 were quantified using the ImageJ program (National Institutes of Health, Bethesda, Md.). The quantified levels are contained in Table 1 below.

hippocampal neurons = test: Filipin staining of cholesterol in cultured hippocampal neurons; format: cell-based, mice; conditions: 1 μM U18666A for 18 h
Experimental: Filipin staining. […] After immunostaining with anti-E6-AP and anti-p-p53 antibodies and corresponding secondary antibodies conjugated with either Alexa Fluor H 594 or Alexa Fluor H 488, neurons were washed with 1×PBS and incubated in the dark with […] filipin in 1×PBS for 2 h at room temperature. Neuronal cultures were then washed again with 1×PBS before being examined with confocal microscopy.
Because axonal growth cone collapse in hippocampal neurons from npc1−/− mice was associated with decreased levels of p-p53, over-expression of wild-type p53 was tested to determine if it could reverse growth cone collapse. In this set of experiments, the amphiphilic amine and cholesterol transport inhibitor, U18666A, was used to induce a NPC-like phenotype in hippocampal neurons cultured from wild-type mice. U18666A has been used to induce NPC-like phenotype in various cultured cells, including neurons. Treatment with 1 μM U18666A for 18 h induced growth cone collapse in about 80% of hippocampal neurons prepared from wild-type mice and transfected with an EGFP-vector or a vector containing p53 with the R175H mutation (p53-R175H), a conformational mutation that is frequently found in tumor cells that lack p53 function (FIGS. 1D and E). […]

[4] = reference [26]; cited from earlier work
npc1−/− mice = test: In vivo ROCK inhibition in developing npc1−/− mice, immunohistochemistry of brain sections; conditions: 10 mg/kg subcutaneously twice a day, postnatal day 7 to 28
Experimental: Animals. A breeding colony of Npc1″ heterozygous mice that were on a BALB/c background (Jackson Laboratory, Bar Harbor, Me.) was established in order breed wild type (npc+/+) and npc1−/− mice. The genotype of the mice was determined by employing a polymerase chain reaction (PCR)-based method as described in reference. The Institutional Animal Care and Use Committee (IACUC) of Western University of Health Sciences approved the care and experimental protocols that these examples describe. The National Institutes of Health Guide for the Care and Use of Laboratory Animals and Animal Husbandry governed the use of animals by the inventors.
as §2
Perfusion and Immunohistochemistry. Mice were perfused with freshly prepared 4% paraformaldehyde in 1×PBS. Brains were then removed and post-fixed in 4% paraformaldehyde for 16 h followed by incubation with graded sucrose solutions. Brains were sectioned into 30 μm coronal sections with a microtome. Floating sections were processed for immunostaining as described previously. Briefly, sections were incubated with rabbit anti-p-p53 (1:250) and mouse anti-pan axonal neurofilament (SMI-312, 1:500; Covance) antibodies in 5% horse serum diluted in 0.1M PB overnight at 4° C. […] Quantification of p-p53 and neurofilament immunoreactivity in fasciculated bundles in the striatum was performed by using NIH ImageJ software. […] Analyzed area consisted of 450 μm×420 μm that was taken from two sections per mouse; three different mice were used for each experimental group. Means of integrated density and areas were quantified and expressed as percentage of values from npc1+/+ mice.

[5] = 1 μM SB203580 pre-treatment, immunohistochemistry
[6] = wild-type cortical neurons treated with pifithrin-μ

Cc1cncc2cccc(S(=O)(=O)N3CCCNC[C@@H]3C)c12.Cl.Cl [H 1152, (S)-(+)-2-Methyl-1-[(4-methyl-5-isoquinolinyl)sulfonyl]-hexahydro-1H-1,4-diazepine dihydrochloride]
effect on U18666A-induced decrease in p-p53 immunoreactivity ([1]; 100 nM H 1152 for 3 h, then 5 μM U18666A 2 min): blocked
effect on U18666A-induced growth cone collapse ([2]; pre-treatment with 100 nM H 1152 for 3 h, then 5 μM U18666A for 2 min): blocked

Bc1ccc(C(=O)/C=C/c2ccc(I)cc2)cc1 [Mdm2-In, trans-4-Iodo, 49-boranyl-chalcone]
RhoA level (immunoblot) [3]: 105 ± 1
Ubiquitin level (immunoblot) [3]: 102 ± 5
p-4EBP1 level (immunoblot) [3]: 104 ± 2
p-LIMK level (immunoblot) [3]: 117 ± 6
p-Mdm2 level (immunoblot) [3]: 100 ± 4
p-p38 level (immunoblot) [3]: 108 ± 17
p-p53Δ level (immunoblot) [3]: 106 ± 2
t-p38 level (immunoblot) [3]: 104 ± 0
t-p53 level (immunoblot) [3]: 104 ± 1
effect on U18666A-induced decrease in p-p53 levels in axons and growth cones ([1]; Mdm2 inhibitor pre-treatment (1 μM), n=25-40 neurons): significantly reduced
RhoA levels in axons, percentage of control vehicle-treated neurons [1]: 102±15%
RhoA levels in growth cones, percentage of control vehicle-treated neurons [1]: 136±20%
effect on U18666A-induced growth cone collapse ([2]; pretreatment with 1 μM Mdm2-in, n=100 growth cones): significantly reduced

C[S+]([O-])c1ccc(-c2nc(-c3ccncc3)c(-c3ccc(F)cc3)[nH]2)cc1 (stereo not shown) [SB203580]
RhoA level (immunoblot) [3]: 96 ± 0
Ubiquitin level (immunoblot) [3]: 95 ± 7
p-4EBP1 level (immunoblot) [3]: 99 ± 3
p-LIMK level (immunoblot) [3]: 100 ± 3
p-Mdm2 level (immunoblot) [3]: 92 ± 1
p-p38 level (immunoblot) [3]: 96 ± 24
p-p53Δ level (immunoblot) [3]: 94 ± 6
t-p38 level (immunoblot) [3]: 99 ± 5
t-p53 level (immunoblot) [3]: 107 ± 2
effect on U18666A-induced RhoA increase in axons and growth cones [1, 5]: blocking effects
effect on U18666A-induced p-p53 truncation in axons and growth cones [1, 5]: blocking effects
effect on U18666A-induced growth cone collapse ([2]; preincubation with 1 μM SB203580 for 2 h before U18666A): significantly reduced

CCN(CC)CCO[C@H]1CC[C@@]2(C)C(=CC[C@@H]3[C@@H]2CC[C@]2(C)C(=O)CC[C@@H]32)C1 [U18666A]
p-p53 levels (immunoblot) ([3]; 5 μM U18666A for 2 min, DIV4 wild-type cortical neurons): rapid decrease
RhoA level (immunoblot) [3]: 418
Ubiquitin level (immunoblot) [3]: 435
p-4EBP1 level (immunoblot) [3]: 389
p-LIMK level (immunoblot) [3]: 411
p-Mdm2 level (immunoblot) [3]: 549
p-p38 level (immunoblot) [3]: 493
p-p53Δ level (immunoblot) [3]: 775
t-p38 level (immunoblot) [3]: 107
t-p53 level (immunoblot) [3]: 94
filipin fluorescence intensity (cholesterol) in axons and collapsed growth cones (hippocampal neurons): marked decrease
levels of "mutant" p53 in axons and growth cones ([1]; 5 μM U18666A for 2 min, DIV4): markedly reduced
p-4EBP1 levels in axons and growth cones ([1]; 5 μM U18666A for two min): increased
levels of p-p38 and p-Mdm2 in axons and growth cones ([1]; 5 μM U18666A for two min vs vehicle-treated controls): increased
RhoA levels in axons, percentage of control vehicle-treated neurons [1]: 640±56%
RhoA levels in growth cones, percentage of control vehicle-treated neurons [1]: 257±37%
growth cone collapse (share of neurons) ([2]; neurons transfected with EGFP-vector or p53-R175H): about 80%
growth cone collapse (share of neurons) ([2]; neurons transfected with wild-type p53): 20%
growth cone collapse ([2]; 5 μM U18666A for 2 min, DIV4, no inhibitor, n=100 growth cones): 72±2%

CC[C@H]1CN2CCc3cc(OC)c(OC)cc3[C@@H]2C[C@@H]1C[C@H]1NCCc2cc(OC)c(OC)cc21 [emetine]
effect on U18666A-induced phosphorylation of LIMK ([3]; emetine pretreatment): significantly reduced
effect on pifithrin-μ-induced increase in RhoA and p-LIMK ([3]; emetine pretreatment): blocked
effect on U18666A-induced changes in levels of p-Mdm2, p-p38 and p-p53Δ ([3]; emetine treatment): did not affect
effect on U18666A-induced increase in RhoA levels ([3]; pre-treatment with emetine): significantly reduced
effect on U18666A-induced growth cone collapse ([2]; emetine pretreatment, FIG. 15C legend: cortical neurons, n=100 growth cones): significantly reduced

O=c1[nH]ccc2c(S(=O)(=O)N3CCCNCC3)cccc12 [hydroxyfasudil monohydrochloride]
blood-brain-barrier crossing [4]: cross the blood-brain-barrier
ischemia-induced brain damage [4]: reduce ischemia-induced brain damage
SMI-312-immunopositive areas (npc1−/− mice): significantly increased
number of axonal neurofilaments (SMI-312 staining), especially corpus callosum and striatum (npc1−/− mice): increased
p-p53 immunoreactivity in brain sections (npc1−/− mice): increased

NS(=O)(=O)C#Cc1ccccc1 [pifithrin-μ]
levels of RhoA and p-LIMK (immunoblot) [3, 6]: rapid increase
levels of p-4EBP1 [3, 6]: increased
